Literature values as cited in patent US20250235427A1, “5-METHOXY-N,N-[…][…] THE TREATMENT OF SOCIAL/EMOTIONAL […] DETACHMENT” (GH RESEARCH IRELAND LIMITED, priority 2022, published 2025).

System: patients with treatment resistant bipolar depression
Conditions: single 0.5·mg·kg^1 infusion; cited from earlier work

SMILES: CNC1(c2ccccc2Cl)CCCCC1=O (centres unmarked) [ketamine]
- duration of anti-anhedonic effect: up to 14 days
- time to decrease of anhedonia (effect onset): ≤ 40 min
